What all share (assay type): cell-based
One series deals with NF-κB. The series is described as follows: Measurement of NF-κB activation using THP1-Blue NF-κB cells (SEAP reporter, LPS as primary stimulus). As to conditions: compound 5 μM + LPS, 20 hour incubation; two point normalized: compound 1 + LPS = 200%, LPS = 100%; mean. On the procedure:
THP1-Blue™ NF-κB cells were plated in 96-well plates at 10^5 cells/well in 100 μl RPMI supplemented with 10% fetal bovine serum (FBS, Omega Scientific, Inc., Tarzana, Calif.), 100 U/mL penicillin, 100 μg/ml streptomycin (Thermo Fisher Scientific) and Normocin (Invivogen). LPS was prepared in assay medium at a concentration of 20 μg/mL. Tested compounds were dissolved in DMSO at 1 mM as a stock solution and were further diluted in the LPS solution to a final concentration of 10 μM. 100 μL of this solution was then transferred to the plated cells to obtain a final concentration of LPS at 10 μg/mL and compound at 5 μM ([…]). The culture supernatants were harvested after a 20 hour incubation period, SEAP activity in the culture supernatants was determined by a colorimetric assay using QuantiBlue (Invivogen). Plate absorbance was read at 630 nm using a Tecan Infinite M200 plate reader (Männedorf, Switzerland). The SEAP concentration was directly proportional to NF-κB activity, which was 2-point normalized to yield activity of compound 1+LPS as 200% and activity for LPS as 100%.
Measurement of NF-κB Activation Using THP1-Blue NF-κB Cells. THP1-Blue NF-κB cells were plated in 96-well plates at 10^5 cells/well in 100 μL of RPMI supplemented with 10% fetal bovine serum (FBS, Omega Scientific, Inc., Tarzana, Calif.), 100 U/mL penicillin, 100 μg/mL streptomycin (Thermo Fisher Scientific), and Normocin (Invivogen). LPS was prepared in assay medium at a concentration of 20 μg/mL. Tested compounds were dissolved in DMSO at 1 mM as a stock solution and were further diluted in the LPS solution to a final concentration of 10 μM. 100 μL of this solution was then transferred to the plated cells to obtain a final concentration of LPS at 10 μg/mL and compound at 5 μM ([…]). The culture supernatants were harvested after a 20 hours incubation period. SEAP activity in the culture supernatants was determined by a colorimetric assay using QuantiBlue (Invivogen). Plate absorbance was read at 630 nm using a Tecan Infinite M200 plate reader (Mannedorf, Switzerland). The SEAP concentration was directly proportional to NF-κB activity, which was two-point normalized to yield activity of compound 1+LPS as 200% and activity for LPS as 100%.

In the next series the test system is THP-1 cells. Description: Cell viability assay (MTT). As to conditions: compound 5 μM, 18 hours incubation; normalized to DMSO as 100%; mean. On the procedure:
THP-1 cells were plated in 96-well plates (10^5 cells/well) in 100 μL RPMI supplemented with 10% FBS, 100 U/mL penicillin and 100 μg/ml streptomycin. Compounds were dissolved in DMSO at 1 mM stock solution and were further diluted to 10 μM in the assay medium. 100 μL of this solution was added to the cells to obtain a final compound concentration of 5 μM ([…]). After 18 hours incubation, a solution of MTT in assay media (0.5 mg/mL) was added to each well and further incubated for 4 to 6 hours, followed by addition of cell lysis buffer (15% w/v SDS and 0.12% v/v 12N HCl aqueous solution), incubated overnight, and then absorbance measured at 570 nm using 650 nm as reference using Tecan Infinite M200 plate reader.
Cell Viability Assay. THP-1 cells were plated in 96-well plates (10^5 cells/well) in 100 μL RPMI supplemented with 10% FBS, 100 U/mL penicillin, and 100 μg/mL streptomycin. Compounds were dissolved in DMSO at 1 mM stock solution and were further diluted to 10 μM in the assay medium. 100 μL of this solution was added to the cells to obtain a final compound concentration of 5 μM ([…]). After 18 h incubation, a solution of MTT in assay media (0.5 mg/mL) was added to each well and further incubated for 4-6 hours, followed by addition of cell lysis buffer (15% w/v SDS and 0.12% v/v 12 N HCl aqueous solution), incubation overnight, and then absorbance was measured at 570 nm using 650 nm as reference using Tecan Infinite M200 plate reader.

The subject of the next series is ISRE. The series is described as follows: Measurement of ISRE activity in ISRE-bla THP-1 cells (FRET, IFN-α as primary stimulus). The following applies: compound 5 μM + IFN-α 100 U/mL, 16 hours, two point normalized: compound 1 + IFN-α = 200%, IFN-α = 100%, mean; for activity at 5 µM: Homo sapiens, THP-1, read-out: ISRE % Activation. On the procedure: ISRE-bla THP-1 cells were plated in 96-well plates at 5×10^4 cells/well in 50 μl RPMI supplemented with 10% dialyzed FBS (Atlanta Biologicals, Inc., GA), 0.1 mM nonessential amino acids, 1 mM sodium pyruvate, 100 U/mL penicillin and 100 μg/ml streptomycin. Type I IFN-α (R&D Systems, #11200-2) solution was prepared in assay medium at a concentration of 200 U/mL Tested compounds were dissolved in DMSO at 1 mM and were further diluted in the IFN-α solution to a final concentration of 10 μM. 50 μL of this solution was then transferred to the plated cells to obtain a final concentration of IFN-α at 100 U/mL and compound at 5 μM ([…]), The cells were incubated for 16 hours, after which 20 μL of 6×LiveBLAzer™ FRET B/G Substrate (CCF4-AM) mixture (prepared according to the manufacturer's instructions) was added to each well, Plates were incubated at room temperature in the dark for 3 hours. Fluorescence was measured on a Tecan Infinite M200 plate reader at an excitation wavelength of 405 nm, and emission wavelengths of 465 nm and 535 nm. Background values (cell free wells at the same fluorescence wavelength) were subtracted from the raw fluorescence intensity values and the emission ratios were calculated as the ratio of background subtracted fluorescence intensities at 465 nm to background subtracted fluorescence intensities at 535 nm. The ISRE activity values for these compounds were 2-point normalized to yield activity of compound 1+IFN-α as 200% and activity for IFN-α as 100%.
Measurement of ISRE Activity in ISRE-bla THP-1 Cells. ISREbla THP-1 cells were plated in 96-well plates at 5×10^4 cells/well in 50 μL of RPMI supplemented with 10% dialyzed FBS (Atlanta Biologicals, Inc., GA), 0.1 mM nonessential amino acids, 1 mM sodium pyruvate, 100 U/mL penicillin, and 100 μg/mL streptomycin. Type I IFN-α (R&D Systems, no. 11200-2) solution was prepared in assay medium at a concentration of 200 U/mL. Tested compounds were dissolved in DMSO at 1 mM and were further diluted in the IFN-α solution to a final concentration of 10 μM. 50 μL of this solution was then transferred to the plated cells to obtain a final concentration of IFN-α at 100 U/mL and compound at 5 μM ([…]). The cells were incubated for 16 hours, after which 20 μL of 6×LiveBLAzer FRET B/G substrate (CCF4-AM) mixture (prepared according to the manufacturer's instructions) was added to each well. Plates were incubated at room temperature in the dark for 3 hours. Fluorescence was measured on a Tecan Infinite M200 plate reader at an excitation wavelength of 405 nm and emission wavelengths of 465 and 535 nm. Background values (cell free wells at the same fluorescence wavelength) were subtracted from the raw fluorescence intensity values and the emission ratios were calculated as the ratio of background subtracted fluorescence intensities at 465 nm to background subtracted fluorescence intensities at 535 nm. The ISRE activity values for these compounds were two-point normalized to yield activity of compound 1+IFN-α as 200% and activity for IFN-α as 100%.

This note sets out measurements from patent US20220305121A1, “N-ARYL SULFONAMIDE DERIVATIVES AS VACCINE ADJUVANT” (The Regents of the University of California, priority 2019, published 2022).

With `CCOc1ccc(S(=O)(=O)Nc2cc(OC)c([N+](=O)[O-])cc2OC)cc1` [Compound 9, N-(2,5-dimethoxy-4-nitrophenyl)-4-ethoxybenzenesulfonamide], the activity at 5 µM is 133% in the series on NF-κB and 110% in the series with ISRE. In the series with THP-1 cells, the “MTT % Viability” value was 79.2%.
The matching figures for `CCOc1ccc(S(=O)(=O)Nc2cc(OC)c(N)cc2OC)cc1` [Compound 10, N-(4-amino-2,5-dimethoxyphenyl)-4-ethoxybenzenesulfonamide]: 101%, 102% and 92.2%.
The matching figures for `CCCCOc1ccc(S(=O)(=O)Nc2cc(OC)c(Cl)cc2OC)cc1` [Compound 14, 4-Butoxy-N-(4-chloro-2,5-dimethoxyphenyl)benzenesulfonamide]: 101%, 106% and 95.3%.
The matching figures for `COc1cc(NS(=O)(=O)c2ccc([N+](=O)[O-])cc2)c(OC)cc1Cl` [Compound 17, N-(4-chloro-2,5-dimethoxyphenyl)-4-nitrobenzenesulfonamide]: 101%, 103% and 97.4%.
On to `COc1cc(NS(=O)(=O)c2ccc(N)cc2)c(OC)cc1Cl` [Compound 18, 4-Amino-N-(4-chloro-2,5-dimethoxyphenyl)benzenesulfonamide], for which the activity at 5 µM in the series on NF-κB stood at 101%; with ISRE it was 103%. Moreover, in the series with THP-1 cells, the “MTT % Viability” value amounted to 96.0%.
As for `COc1cc(NS(=O)(=O)c2ccc(C#N)cc2)c(OC)cc1Cl` [Compound 19, N-(4-chloro-2,5-dimethoxyphenyl)-4-cyanobenzenesulfonamide], the activity at 5 µM worked out at 97% in the series with NF-κB and 106% with ISRE. In addition, the “MTT % Viability” value with THP-1 cells was determined as 102.9%.
In the case of `COc1cc(NS(=O)(=O)c2ccc(CNC(=O)OC(C)(C)C)cc2)c(OC)cc1Cl` [Compound 20, tert-butyl (4-(N-(4-chloro-2,5-dimethoxyphenyl)sulfamoyl)benzyl) carbamate], in the series on NF-κB, the “NF-κB % Activation” value was 100%. Moreover, in the series on THP-1 cells, the “MTT % Viability” value came to 109.2%. Moreover, the “ISRE % Activation” value in the series on ISRE is recorded as 101%.
With `COc1cc(NS(=O)(=O)c2ccc(CN)cc2)c(OC)cc1Cl` [Compound 21, 4-(aminomethyl)-N-(4-chloro-2,5-dimethoxyphenyl)benzenesulfonamide], the activity at 5 µM in the series with NF-κB was 103%; in the series on ISRE it was 111%. In addition, the “MTT % Viability” value in the series with THP-1 cells was 97.0%.
With `COC(=O)c1ccc(S(=O)(=O)Nc2cc(OC)c(Cl)cc2OC)cc1` [Compound 26, Methyl 4-(N-(4-chloro-2,5-dimethoxyphenyl)sulfamoyl)benzoate], the activity at 5 µM with NF-κB turned out to be 191%; in the series with ISRE, 202%. Further, the “MTT % Viability” value in the series with THP-1 cells is 74.4%.
The matching figures for `CCCN(c1cc(OC)c(Cl)cc1OC)S(=O)(=O)c1ccc(OCC)cc1` [Compound 34, N-(4-chloro-2,5-dimethoxyphenyl)-4-ethoxy-N-propylbenzenesulfonamide]: 227%, 199% and 71.6%.
The matching figures for `CCCCN(c1cc(OC)c(Cl)cc1OC)S(=O)(=O)c1ccc(OCC)cc1` [Compound 35, N-(4-chloro-2,5-dimethoxyphenyl)-4-ethoxy-N-butylbenzenesulfonamide]: 192%, 156% and 77.7%.
`CCCCCN(c1cc(OC)c(Cl)cc1OC)S(=O)(=O)c1ccc(OCC)cc1` [Compound 36, N-(4-chloro-2,5-dimethoxyphenyl)-4-ethoxy-N-pentylbenzenesulfonamide]: the values for the activity at 5 µM with NF-κB and in the series on ISRE were 135% and 105%, respectively. The “MTT % Viability” value with THP-1 cells amounted to 72.9%.
The matching figures for `CCCCCCN(c1cc(OC)c(Cl)cc1OC)S(=O)(=O)c1ccc(OCC)cc1` [Compound 37, N-(4-chloro-2,5-dimethoxyphenyl)-4-ethoxy-N-hexylbenzenesulfonamide]: 81%, 99% and 95.2%.
`CCCCCCCN(c1cc(OC)c(Cl)cc1OC)S(=O)(=O)c1ccc(OCC)cc1` [Compound 38, N-(4-chloro-2,5-dimethoxyphenyl)-4-ethoxy-N-heptylbenzenesulfonamide]: the activity at 5 µM in the series with NF-κB was 108%; with ISRE, 95%. For the same compound, in the series on THP-1 cells, the “MTT % Viability” value turned out to be 90.4%.
For `CCOc1ccc(S(=O)(=O)N(CCCN)c2cc(OC)c(N=[N+]=[N-])cc2OC)cc1` [Compound 63, N-(3-aminopropyl)-N-(4-azido-2,5-dimethoxyphenyl)-4-ethoxybenzenesulfonamide], in the series with THP-1 cells, the “MTT % Viability” value is on record as 68.9%.
